Results on two compounds are retold here after patent US9555040B2, “Methods of treating proliferative diseases” (Ambit Biosciences Corporation, priority 2009, dated 2017).

Some results are limits rather than exact numbers.

The nature of data set [1]: Phase I clinical trial: plasma pharmacokinetics. It is filed as in vivo, human. The method, then:
In addition, plasma samples were collected on day 15 (˜24 hrs post final dose) to evaluate steady-state trough levels. Bioanalysis of the compound was initially conducted at Consolidated Laboratory Services (CLS), Van Nuys, Calif. […] The coefficient of variation (CV %) for AUCO-24 at steady-state is modest at the lowest dose of 12 mg (33%) and high for the 450 mg cohort (82%). While the variability tended to be higher at higher doses, there was not a clear relationship between variability and either dose or […].
This analysis was conducted at MicroConstants, San Diego, Calif.

Data set [2] in a line: Animal toxicology studies. It is filed as in vivo.
The subject of data set [3] is relapsed or refractory acute myeloid leukemia. Put plainly: Phase I clinical trial: efficacy, responses per modified Cheson criteria. It counts as in vivo, human. How it is done: The study was open labeled and designed to determine the safety, tolerability, dose limiting toxicity (DLT), pharmacokinetics and pharmacodynamics of escalating doses.
The study included adult patients with relapsed or refractory AML, or unsuitable for induction chemotherapy.
Patients with clinical benefit were allowed to continue for additional cycles at the discretion of the investigator. The protocol was subsequently amended to allow for continuous dosing of the compound starting at 200 mg on Day 1.
Preliminary response data was evaluated in all 76 patients treated with the compound.
Responses were defined per modified Cheson criteria.

Another data set concerns pSTAT5. Put plainly: Pharmacodynamics: pSTAT5 in patient samples. It counts as in vivo, human. Conditions: subset of 17 patients, very preliminary. An excerpt: STATS is a downstream signaling pathway activated by FLT3 following binding of FLT3 ligand leading to receptor dimerization, increased kinase activity and activation of downstream signaling pathways including STATS.

Data set [4] in a line: Phase I clinical trial: safety, tolerability, dose limiting toxicity. It is filed as in vivo, human. An excerpt: This study was the first human clinical trial of the compound of Formula I or a pharmaceutically acceptable salt or solvate thereof in humans having relapsed or refractory acute myeloid leukemia. The study was open labeled and designed to determine the safety, tolerability, dose limiting toxicity (DLT), pharmacokinetics and pharmacodynamics of escalating doses.
The study included adult patients with relapsed or refractory AML, or unsuitable for induction chemotherapy. Demographics and baseline characteristics were as follows: median age was 60 years, with a range of 23-86 years. Sixty percent of the patients were male. […] Eleven (15%) patients had prior allogeneic hematopoietic stem cell transplant (HSCT) and 13 (17%) patients had secondary AML with antecedent MDS or MDS/MPD. A total of 20 patients had FLT3 mutations (17 ITD and 3 D835), 43 were wild-type, and 13 were undetermined.
Patients with clinical benefit were allowed to continue for additional cycles at the discretion of the investigator. The protocol was subsequently amended to allow for continuous dosing of the compound starting at 200 mg on Day 1. In addition to patients included in the 200 mg (17 patients) and 300 mg (8 patients) continuous dosing cohort, there were at least 8 patients who, at the investigators discretion and per protocol, received continuous dosing after cycle 1 of intermittent dosing ranging from 19-187 days.
In addition, the safety profile was similar between patients receiving continuous dosing and those on the intermittent schedule. These included general disorders (e.g., pyrexia and fatigue), gastrointestinal disorders (e.g., nausea, diarrhea and vomiting) and hematologic disorders (eg, anemia, neutropenia and thrombocytopenia).
Out of the 76 patients treated with the compound in this study, 38 patients (50%) reported a total of 94 serious adverse events (SAEs) (defined as CTC Grade 3 or greater). The majority of the SAEs were considered by the investigator to be not related to study treatment. Only 6 patients (7.9%) reported SAEs that were initially considered to be related to treatment with the compound. These included one patient with lung infection, one patient with vomiting and one patient with nausea, anorexia, and upper abdominal pain. The investigator subsequently revised the event of anorexia for the patient to non-serious. In addition, three patients were noted by the site investigators using local ECG analysis to have reported Grade 3 QTc prolongation of >500 ms which was considered to be a dose-limiting toxicity for the study according to the protocol.
Based on the site reported dose-limiting toxicity of Grade 3 QTc prolongation, a detailed evaluation of the cardiac safety of the compound was conducted. As defined in the protocol, a single 12-lead electrocardiogram (ECG) had been performed using standardized equipment at the site at Visits 1 (screen), 2 (Baseline—at Hours 0, 2, and 4), 4 (Day 8 at Hours 0 and 4), and depending on the version of the protocol active at the time of assessment for each patient, 6 (Day 14 or 15), 7 (Day 21 or 22), 8 (Day 28 or 29), 9 (Day 36), 10 (Day 43), 11 (Day 50), 12 (Day 57) and at the end of the study or early termination. ECG assessments and interpretations initially were performed by the site's cardiologist or other qualified site personnel. To improve upon the accuracy of these locally-analyzed data, a central digitized blinded analysis of all ECGs collected to date was undertaken by a core ECG laboratory (EResearchTechnology in Philadelphia, Pa.). Due to some issues with readability, 72 patients (out of 76 patients enrolled in the study) were included in this analysis. […] The phase I study was not designed to define the ECG effects of the compound, which will be more closely monitored in the phase II study.

Setting [5] is: FLT3-ITD patients, 200 mg continuous dosing (n=5).
Setting [6] is: patients with FLT3-ITD mutation (n=17).

For the compound `CC(C)(CO)c1cc(NC(=O)Nc2ccc(-c3cn4c(n3)sc3cc(OCCN5CCOCC5)ccc34)cc2)no1` [compound of formula II], in data set [1] (human plasma, n=60), the “average steady state plasma ratio of formula II/I” value was 0.4 and the “plasma ratio of compounds of formula II/I, highest in one patient” value is listed as not above 3.14. For the same compound, the steady-state plasma level in data set [1] (patients dosed at 200 mg of the compound of formula I) is approximately 300 ng/mL.
By half-life is commonly meant how long it takes for the measured level to halve. Higher therefore signals slow loss. As for `CC(C)(C)c1cc(NC(=O)Nc2ccc(-c3cn4c(n3)sc3cc(OCCN5CCOCC5)ccc34)cc2)no1` [compound of formula I, N-(5-tert-butyl-isoxazol-3-yl)-N′-{4-[7-(2-morpholin-4-yl-ethoxy)imidazo[2,1-b][1,3]benzothiazol-2-yl]phenyl}urea], in data set [2], the target organ toxicity entry is on record as “Bone marrow hypocellularity”. Also, the “bone marrow responses within the first 29 days of treatment (Cycle 1)” value in data set [3] (15/22 responders) was 68%. In data set [3] (setting [5]), this compound returned a CR of 1 patients, a CRi of 1 patients, a CRp of 1 patients and a PR of 2 patients. For the same compound, the “overall response rate (CR+CRp+CRi+PR)” value in data set [3] (FLT3-ITD patients, 200 mg continuous dosing, 5/5) is recorded as 100%. Besides, in data set [3] (all 76 patients), the “CR with complete hematologic recovery” value came to 2 patients; the “CR with incomplete platelet and neutrophil recovery (CRi)” value is given as 4 patients; the “CR with incomplete platelet recovery (CRp)” value stood at 4 patients; the “patients achieving complete remission (CR, all types)” value is listed as “Ten”. Further, in data set [3] (all 76 patients), the “patients with partial remission (PR)” value is on record as “Fourteen”. For the same compound, the “peripheral blast reduction (>25% at baseline with >50% decrease post-treatment to 0-25%)” value in data set [3] (all patients) is recorded as “most patients had a peripheral blast reduction”. For the same compound, the “overall response (CR+PR)” value in data set [3] (all patients, 12 mg-450 mg, 24/76) was determined as 32%. In addition, in data set [3] (of the remaining 7 responders), the “patients reporting a response after Cycle 2” value is 3 patients and the “patients reporting a response within 57 days (Cycle 2)” value was determined as 4 patients. In data set [3] (setting [6]), this compound yielded a CR of 1 patients, a CRi of 3 patients, a CRp of 1 patients and a PR of 6 patients. The compound further came in with an overall response rate in data set [3] (patients with FLT3-ITD mutation, 11/17) of 65%. Also, in data set [3] (range, 4 to 61+ weeks), the “median duration of remission” value was determined as 14.1 weeks. For the same compound, in the data set on pSTAT5, the “effect on pSTAT5” value is on record as “dose-dependent effect is consistent with that observed with pFLT3”. For the same compound, in data set [1] (human, in vivo), the “dose dependence of steady-state plasma exposure (AUC)” value was “increased in a dose proportional manner”; the “peak and trough variation of plasma levels” value is “minimal peak and trough variation”; the “time to steady-state plasma exposure” value is not above 8 days. Further, the “coefficient of variation (CV %) for AUC0-24 at steady-state” value in data set [1] (human, in vivo, 12 mg) turned out to be 33%. Also, in data set [1] (human, in vivo, 450 mg), the “coefficient of variation (CV %) for AUC0-24 at steady-state” value is 82%. This compound also gave a half-life in data set [1] (human, in vivo, effective half-life) of approximately 36 h. In data set [1] (human, in vivo, po), the oral bioavailability entry was “orally bioavailable”. The compound also showed a half-life in data set [1] (human, in vivo, terminal T1/2) of 31.2 h. In addition, the 30-day treatment-related mortality entry in data set [4] (76 patients, to date) was “no 30-day treatment-related mortality”. In addition, in data set [4] (all deaths disease or comorbidity associated, not treatment related), the “patients who died during the study” value is reported as 12 patients. In data set [4] (both, human, in vivo), the “grade of the majority of treatment-related adverse events” value is “CTC Grade 1 and 2”; the “patients reporting SAEs initially considered related to treatment” value was found to be 7.9%; the “patients reporting serious adverse events (CTC Grade 3 or greater)” value is listed as 50%; the “total number of serious adverse events reported” value is 94. In data set [4] (human, in vivo), the “liver or kidney abnormalities as drug-related serious adverse events (BUN, creatinine, ALT, AST, ALP, bilirubin)” value is given as “no liver or kidney abnormalities” and the “patients with Grade 3 QTc prolongation of >500 ms (dose-limiting toxicity)” value is on record as “three”.
